The values below are quoted from earlier work in US6447793B2, “Water soluble, broad spectrum preservative system” (The Collaborative Group, Ltd., priority 1998, dated 2002).

Test systems include mold; most bacterial; yeast.
What all share (details): pH of 4.5 or below

With `C/C=C/C=C/C(=O)O` [sorbic acid, Sorbic acid], the activity against mold result in the data set on mold is listed as “very active”. Besides, the “activity against most bacterial” value in the data set on most bacterial was “poor”. The activity against yeast entry in the data set on yeast is “fair”.
